Results published in article PMC4413647, “Simultaneous targeting of androgen receptor (AR) and MAPK-interacting kinases (MNKs) by novel retinamides inhibits growth of human prostate cancer cell lines” (Oncotarget, 2014).
Where two headings read alike, the source gives them in different places.

Experiments:
PC-3 cells = test: Boyden chamber matrigel invasion assay; format: cell-based, human; conditions: PC-3, 5 μM, 24 h
Experimental: Figure 5 Anti-migratory and anti-invasive potential of NRs (A) Effect of NRs treatment (5 μmol/L) on PC-3 cell migration was assessed by wound healing assay after 24 h of wound formation. Representative photomicrographs of initial and final wounds are shown at 100x magnification. (B) Effect of NRs on PC-3 cell invasion was evaluated by transwell migration assay. PC-3 cells were seeded on matrigel coated boyden chamber and treated with NRs (5 μmol/L, 24 h). Photographs represent the extent of cell invasion in each of the treated cells. (C) Western blot analysis of the effect of NRs on the expression of cadherins in PC-3 cells. Cells were treated with indicated compound 20 μmol/L for 24 h.
The invasion assay in PC-3 cells was performed using Matrigel (BD Biosciences, Bedford, MA, USA)-coated transwell cell culture chambers (8 μm pore size, EMD Millipore, Temecula, CA, USA) as described previously (43). Briefly, PC-3 cells (5 × 10^4 cells/well) were cultured in the upper chamber of the transwell insert for 24 h in serum-free RPMI-1640 medium. The cells were then treated with 5 μM of indicated compounds for 24 h. RPMI-1640 medium containing 10% FBS was placed in the lower chamber. At the end of incubation, the top surface of the non-migrated cells were scraped gently with cotton swabs and the cells on the lower surface of the membrane (migrated cells) were fixed for 15 min with cold methanol and stained with crystal violet. Cells that had migrated to the bottom of the membrane were visualized and counted using an inverted microscope. For each replicate (n = 3), cells in three randomly selected fields were counted and averaged.

MR49F cells = test: MTT growth inhibition in Enzalutamide resistant MR49F cells; format: cell-based, human; conditions: Homo sapiens, MR49F; read-out: GI50 MR49F (Figure 2C)
Experimental: Figure 2 Effect of NRs on PCa cell growth and colony formation (A) Representative photographs of colonies formed in PCa cells at 14th day after initial treatment with specified compounds (5 μmol/L). Colonies were fixed with methanol and stained with crystal violet. (B) Data represents the mean ± S.E from three independent experiments. *, P< 0.05; ♣, P<0.01 compared to vehicle treated control. […] NRs that had promising inhibitory effect on cell proliferation on LNCaP cells were tested for their growth inhibitory effect in MR49F cells in comparison with Casodex and Abiraterone acetate by MTT assay.
(§1) Androgen-dependent (LNCaP), androgen-independent (PC-3) and castration resistant (C4-2B and 22Rv1) human prostate carcinoma cells were procured from American Type Culture Collection, Manassas, VA, USA and maintained in RPMI 1640 media (Gibco-Life Technologies, Grand Island, NY, USA) supplemented with 10% fetal bovine serum and 1% penicillin/streptomycin. […] Immortalized untransformed prostate epithelial cells, PWR1E from American Type Culture Collection were maintained in serum-free Keratinocyte media (Gibco) supplemented with epidermal growth factor and bovine pituitary extract. All cell lines were maintained in a 37 °C/5% CO2 humidified atmosphere.
(§2) Cell proliferation assay was performed as described previously. For cell growth experiment, cells were treated with the NRs for 7 days. MTT assay was performed at the end of the experiment. Calculations of combination indices were done using the Calcusyn program (Biosoft, Cambridge, United Kingdom). For colony formation assay, cells were plated 1000 per well in complete media and allowed to adhere for 24 h. The next day cells were treated with indicated compounds (5 μM). After 24 h compound containing media were removed, and cells were allowed to form colonies in complete media. Approximately 2 weeks later the colonies were fixed, stained with 0.5% crystal violet (sigma) for 30 min and counted manually. Results represent the mean ± standard deviation of three independent experiments.

22Rv1 cells = test: MTT cell proliferation assay, 7 d, 22Rv1; format: cell-based; conditions: Homo sapiens, 22Rv1, 168 h, 7 d treatment
Excerpt: as §1, §2

LNCaP cells [1] = test: MTT cell proliferation assay, 7 d, LNCaP; format: cell-based, human; conditions: 7 d treatment
Excerpt: as §1, §2

LNCaP cells [2] = test: Cell cycle FACS analysis (PI staining); format: cell-based, human; conditions: 5 μM, 24 h, untreated control 37.1%
Experimental: Figure 4 Effect of NRs on cell cycle and apoptosis (A) LNCaP cells treated with 5 μM of NRs and other compounds for 24 h were stained with PI and analysed with a FACS calibur flow cytometer. (B) Total cell lysates from PCa cells treated with 20 μM of NRs were separated by SDS-PAGE and probed with cyclin D1 and B antibodies. […] (C) LNCaP cells were treated with indicated compounds (5 μmol/L) for 24 h and apoptosis induction was examined by oligonucleosomal fragmentation. Data are shown relative to vehicle treated control and the bars are means of three replicate determinations plus standard deviations. *, P< 0.01; ♣, P<0.05 compared with vehicle treated control. […] After 24 h the plates were analyzed for apoptotic and viable cells using acridine orange/ethidium bromide staining. […] (F) Apoptosis induction in LNCaP cells treated with 5 μmol/L of VNLG-147 and -152 in the presence or absence of ZVAD (5 μmol/L) was assessed by oligonucleosomal fragmentation after 24 h incubation. *, P< 0.05 compared with vehicle treated control. […]
Cells were harvested by trypsinization and then ﬁxed with 70% ethanol for 24 h at 4 °C. […] Stained cells were analyzed with a ﬂow cytometer using FlowJo software that exploits Watson algorithm to find out peak and S-phase populations from a univariate distribution curve.

Question: CC1=C(/C=C/C(C)=C/C=C/C(C)=C/C(=O)Nc2ccc(F)cc2)C(C)(C)CCC1n1ccnc1 (racemic) [VNLG-152] was tested. Which “percentage of cell invasion compared to control” value (PC-3 cells) did it give?
Answer: 13

Question: What about the GI50 (MR49F cells) of the same molecule?
Answer: 3.89 µM

Question: And the GI50 (22Rv1 cells)?
Answer: 3.23 µM

Question: And the GI50 (LNCaP cells [1]; read-out: GI50 LNCaP)?
Answer: 2.45 µM

Question: What about the GI50 (LNCaP cells [1]; Homo sapiens, LNCaP, 168 h, read-out: GI50 LNCaP) of the same molecule?
Answer: 2.5 µM

Question: What about the GI50 (LNCaP cells [1]; Homo sapiens, LNCaP, 168 h, DHT induced, read-out: GI50 LNCaP, DHT induced) of the same molecule?
Answer: 1.86 µM

Question: And the “percentage of cells in G1 phase” value (LNCaP cells [2])?
Answer: 74.6%
